Measured values as given in US8173360B2, “Cell death inhibitor” (Takeda Pharmaceutical Company Limited, priority 2002, dated 2012).

How the values were obtained:
[1] = target: T1, rat MIF (Rattus norvegicus, UniProt P30904); assay: Binding to immobilized rat MIF by surface plasmon resonance (BIACORE 3000); conditions: 10 μM in PBS, rat MIF immobilized on sensor chip CM5
T1 construct: the region encoding MIF was amplified from the complementary DNA (cDNA) library of rat and mouse brains; made in house; host or cells: Escherichia coli BL21 (DE3)
Procedure: The binding of rat MIF obtained in REFERENCE EXAMPLE 6 to Compound 1 obtained in REFERENCE EXAMPLE 1 was analyzed using BIACORE 3000 (manufactured by Biacore).
Rat MIF was immobilized on a sensor chip CM5 (manufactured by Biacore). Then, phosphate buffered saline (PBS) containing 10 μM of Compound 1 was flown over the sensor chip and changes in the surface plasmon resonance signal were monitored as the binding of the compound to rat MIF.
Rat MIF obtained in REFERENCE EXAMPLE 6 was immobilized on a sensor chip CM5 (manufactured by Biacore Co., Ltd.). Thereafter, phosphate buffered saline (PBS) containing 10 μM of 3-[2-(4-oxo-4H-1,3-benzothiazin-2-yl)-4-pyridyl]propionic acid (the compound of EXAMPLE 308 described in WO 03/020719) was flown over the sensor chip and changes in surface plasmon resonance signal were monitored as the binding of the compound to rat MIF.

[2] = test system: primary cardiomyocytes derived from rat neonates; assay: Inhibition of serum depletion-induced myocardial cell death (WST-8 viable cell count); format: cell-based; conditions: serum depletion, 4 days, WST-8 viable cell count
Text: Neonates (within one day after birth) were obtained from pregnant Wistar rats purchased from Charles River Japan, Inc. and anesthetized with ether. After sterilization with 70% ethanol, the heart was removed with forceps. After washing with phosphate buffered saline (manufactured by Takara Co., Ltd., T900), the heart removed was minced with surgical scissors. The pieces of tissue were washed 4 or 5 times with phosphate buffered saline to remove most of non-cardiomyocytes derived from blood. To the pieces of tissue corresponding to 10 neonates, 5 ml of an enzyme solution [which is a solution of trypsin (1.25 mg) (manufactured by Difco) and collagenase (0.25 mg) (manufactured by Sigma) in phosphate buffer (1 ml)] was added. The mixture was stirred for 15 minutes with a stirrer while maintaining at 37° C. After 2.5 ml of the enzyme solution was replenished, the mixture was stirred for further 15 minutes, and this procedure was repeated twice. Subsequently, Medium 199 (manufactured by Gibco) containing 10% fetal cow serum (manufactured Biowicker, Inc.) was added to the mixture in a half volume of the enzyme solution to terminate the enzymatic reaction. After filtering through a cell strainer (manufactured by Falcon), the mixture was centrifuged at 400×g for 5 minutes to collect the cells.
The cells were then recovered, filtered through a cell strainer and centrifuged at 400×g for 5 minutes to collect primary cardiomyocytes derived from rat neonates.
Next, the primary cardiomyocytes derived from rat neonates (corresponding 10 neonates) were suspended in 2 ml of a hypotonic solution [solution obtained by dissolving NH4Cl (8.29 g), KHCO3 (1.0 g) and EDTA/2Na (ethylenediaminetetraacetic acid disodium; manufactured by Dojin Chemical Laboratory) (37 mg) in water (1 L)]. The suspension was allowed to stand for 3 minutes to disrupt erythrocytes. To the suspension 10 ml of Medium 199 containing 10% fetal cow serum was added, and the mixture was centrifuged at 400×g for 5 minutes to collect the primary cardiomyocytes derived from rat neonates. […] An aliquot of the cardiomyocytes suspension obtained was taken out and 0.3% trypan blue was added thereto. The mixture was gently stirred and the count of cardiomyocytes was counted with a hemocytometer.
Incubation was continued for further 4 days to induce cell death. […]
The mean value (±SD) in the minimum effective concentration of Compound 1 required for inhibiting the cell death was 0.015±0.011 μM. The concentration of Compound 1 required for increasing the mean cell count by 30% when compared to the cell count without the addition of Compound 1 was determined to be the minimum effective concentration. […]

[3] = test system: Human normal articular chondrocytes; assay: Inhibitory activity against cell death of human articular chondrocytes induced by NO (MTT); format: cell-based; conditions: 100 μM; 1.5 mM sodium nitroprusside 5 hours; mean ±SD
Procedure: Human normal articular chondrocytes (Clonetics, Inc.) were proliferated in a growth medium for articular chondrocytes (CGM, Clonetics, Inc.) in monolayer culture. Then, the cells were suspended in 1.2% alginate-containing 155 mM NaCl solution in a density of 2.0×10^6 cells/ml, and beads having a 2 mm diameter were prepared using a syringe with a 22 gauge needle. The beads were incubated in a differentiation medium for articular chondrocytes (CDM, Clonetics, Inc.) charged in a 96-well round-bottomed plate (1 bead/well, manufactured by FALCON) for further 7 days. The medium was replaced by α-modified minimum essential medium containing Compound 1 (0.1 μM or 1 μM) and 10% fetal cow serum, followed by incubation for 48 hours and then for 5 hours in the co-presence of 1.5 mM sodium nitroprusside (NO generator, manufactured by Sigma). As control drugs, caspase 3 inhibitor (Z-DEVD-FMK (SEQ ID NO: 5), 100 μM, manufactured by R & D Systems, Inc.) and caspase 9 inhibitor (Z-LEHD-FMK (SEQ ID NO: 6), 100 μM, manufactured by R & D Systems, Inc.) were similarly monitored for their activities. After completion of the experiment, alginate was removed and the cell survival rate was determined by the MTT technique.
In the table, the numerical values indicate mean values (±SD) of the cell death inhibition rates as converted from the measurement data by the MTT technique. The cell survival rate after the addition of 1.5 mM sodium nitroprusside (without addition of either Compound 1 or control drug) was 31.9%.

Molecule	myocardial cell death inhibitory activity [2]	Cell Death Inhibition Rate [3]	further results
O=C(O)CCc1ccnc(-c2nc(=O)c3ccccc3s2)c1 [3-[2-(4-oxo-4H-1,3-benzothiazin-2-yl)-4-pyridyl]propionic acid]	–	–	binding of the compound to rat MIF (changes in surface plasmon resonance signal) [1]: could be selected as the substance binding to MIF
C=CC1=C(C)c2cc3[n-]c(cc4[n-]c(cc5nc(cc1n2)C(C)=C5C=C)c(C)c4CCC(=O)O)c(CCC(=O)O)c3C.O.[Fe+2] [hematin, reference compound]	exhibit the activity of inhibiting myocardial cell death	–	–
Z-DEVD-FMK [reference compound]	–	49.7 ± 10.3	–
Z-LEHD-FMK (Z N-cap, FMK C-terminus) [reference compound]	–	62.7 ± 10.6	–
hemin [reference compound]	exhibit the activity of inhibiting myocardial cell death	–	–
